The text below walks through data of patent publication US4112217A, “Bis-hydrazones of daunomycin and adriamycin” (SRI International, priority 1977, dated 1978).

Counter-ions that a name gives are not always drawn. Like-named read-outs stand apart in the source and are kept apart here.

Assay [1] deals with Cultured L1210 Leukemia Cells. The assay is described as follows: Inhibition of RNA synthesis in cultured lymphoid leukemia L1210 cells. In kind it is cell-based. To be noted: Mus musculus. On the procedure: (§1) Biological testing data for compounds of this invention as the HCl salts, as well as for adriamycin and daunomycin, are presented in the table given below. The compounds were tested first in cultured lymphoid leukemia L1210 cells for inhibition of nucleic acid synthesis by previously reported procedures. The analogs were then tested against lymphocytic leukemia P388 implanted in mice, under the auspices of the NCI and according to its protocols which use the increased survival time of treated mice compared to controls as the measure of antitumor efficacy.
(§2) ^b Assay described in G. Tong, W. W. Lee, D. R. Black and D. W. Henry

For assay [2], the system named is P388 Leukemia in Mice. In words: Antitumor efficacy vs lymphocytic leukemia P388 implanted in mice (NCI protocol). It counts as in vivo, mice (murine). On the procedure: as §1
^c Ip P388 murine leukemia treated ip on QD1-9 and Q4D 5, 9, 13
schedules according to standard NCI protocols. Assay described in R. I.
Geran, N. H. Greenberg, M. M. MacDonald, A. M. Schumacker and B. J.
Abbott, Cancer Chemother. Rep., Part 3, 3 (No. 2), 9 (1972), Protocol
1,200. T/C = ratio of survival time of treated mice to that of untreated
controls times 100. Untreated controls survive about 9 days.

The subject of assay [3] is Cultured L1210 Leukemia Cells. In words: Inhibition of DNA synthesis in cultured lymphoid leukemia L1210 cells. It counts as cell-based. The settings on record: Mus musculus. How it is done:
as §1, §2

Setting [4] is: L1210, read-out: Inhibition of Synthesis of RNA, Ed50.
[5] abbreviates: Mus musculus, ip P388, treated ip, q4d 5,9,13, optimum dose 8 mg/kg, read-out: Antitumor Efficacy T/C.
Setting [6] is: L1210, read-out: Inhibition of Synthesis of DNA, ED50.
[7] abbreviates: cultured L1210 leukemia cells, RNA synthesis, read-out: Inhibition of Synthesis of RNA, Ed50.
Setting [8] is: Mus musculus, P388, ip, ip P388, treated ip, qd 1-9, optimum dose 6.25 mg/kg, read-out: Antitumor Efficacy T/C.
[9] abbreviates: cultured L1210 leukemia cells, DNA synthesis, read-out: Inhibition of Synthesis of DNA, ED50.
Setting [10] is: Mus musculus, P388, ip, read-out: Antitumor Efficacy T/C.
Setting [11] is: Mus musculus, P388, ip, ip P388, treated ip, q4d 5,9,13, optimum dose 25 mg/kg, read-out: Antitumor Efficacy T/C.

Consider `COc1cccc2c1C(=O)c1c(O)c3c(c(O)c1C2=O)C[C@@](O)(C(C)=O)C[C@@H]3O[C@H]1C[C@H](N)[C@H](O)[C@H](C)O1` [Daunomycin], for which the IC50 came to 0.39 µM in assay [1] (setting [4]) and 0.49 µM in assay [3] (setting [6]). For the same compound, the response vs control in vivo at 8 mg/kg in assay [2] (setting [5]) stood at 134%. Also, the response vs control in vivo at 0.5 mg/kg in assay [2] (Mus musculus, ip P388, treated ip, qd 1-9, optimum dose 0.5 mg/kg, read-out: Antitumor Efficacy T/C) worked out at 166%.
Turning to `COc1cccc2c1C(=O)c1c(O)c3c(c(O)c1C2=O)C[C@@](O)(C(C)=NNC(=O)CC(=O)NN=C(C)[C@]1(O)Cc2c(O)c4c(c(O)c2[C@@H](O[C@H]2C[C@H](N)[C@H](O)[C@H](C)O2)C1)C(=O)c1c(OC)cccc1C4=O)C[C@@H]3O[C@H]1C[C@H](N)[C@H](O)[C@H](C)O1` [VIII, Bis(daunomycin) Malonylhydrazone Dihydrochloride], the IC50 came out at 7.4 µM in assay [1] (setting [7]) and 14.1 µM in assay [3] (setting [9]). The response vs control in vivo at 6.25 mg/kg in assay [2] (setting [8]) is 169%. Also, the “Antitumor Efficacy (in words)” value in assay [2] (ip P388, treated ip, q4d 5,9,13, dose not given) was “inactive”.
Regarding `COc1cccc2c1C(=O)c1c(O)c3c(c(O)c1C2=O)C[C@@](O)(C(C)=NNC(=O)CCCC(=O)NN=C(C)[C@]1(O)Cc2c(O)c4c(c(O)c2[C@@H](O[C@H]2C[C@H](N)[C@H](O)[C@H](C)O2)C1)C(=O)c1c(OC)cccc1C4=O)C[C@@H]3O[C@H]1C[C@H](N)[C@H](O)[C@H](C)O1` [II, Bis(daunomycin) Glutarylhydrazone Dihydrochloride], the results for the IC50 in assay [1] (setting [7]) and in assay [3] (setting [9]) were 3.6 µM and 4.5 µM, respectively. In assay [2] (Mus musculus, P388, ip, ip P388, treated ip, qd 1-9, optimum dose 1.56 mg/kg, read-out: Antitumor Efficacy T/C), the response vs control in vivo at 1.56 mg/kg amounted to 188%. Also, in assay [2] (Mus musculus, P388, ip, ip P388, treated ip, qd 1-9, optimum dose 3.12 mg/kg, read-out: Antitumor Efficacy T/C), the response vs control in vivo at 3.12 mg/kg was 149%.
For `COc1cccc2c1C(=O)c1c(O)c3c(c(O)c1C2=O)C[C@@](O)(C(C)=NNC(=O)CCCCCC(=O)NN=C(C)[C@]1(O)Cc2c(O)c4c(c(O)c2[C@@H](O[C@H]2C[C@H](N)[C@H](O)[C@H](C)O2)C1)C(=O)c1c(OC)cccc1C4=O)C[C@@H]3O[C@H]1C[C@H](N)[C@H](O)[C@H](C)O1` [X, Bis-(daunomycin) Pimelylhydrazone Dihydrochloride], the IC50 in assay [1] (setting [4]) was 1.3 µM; in assay [3] (setting [6]) it was 2 µM. Further, the response vs control in vivo at 25 mg/kg in assay [2] (setting [10]) was determined as 160%.
Turning to `COc1cccc2c1C(=O)c1c(O)c3c(c(O)c1C2=O)C[C@@](O)(C(C)=NNC(=O)CCCCCCC(=O)NN=C(C)[C@]1(O)Cc2c(O)c4c(c(O)c2[C@@H](O[C@H]2C[C@H](N)[C@H](O)[C@H](C)O2)C1)C(=O)c1c(OC)cccc1C4=O)C[C@@H]3O[C@H]1C[C@H](N)[C@H](O)[C@H](C)O1` [IV, Bis(daunomycin) Suberylhydrazone Dihydrochloride], the IC50 in assay [1] (setting [7]) stood at 2.4 µM; in assay [3] (setting [9]), 4.9 µM. In addition, in assay [2] (setting [11]), the response vs control in vivo at 25 mg/kg was found to be 178%. Also, in assay [2] (Mus musculus, P388, ip, ip P388, treated ip, qd 1-9, optimum dose 8 mg/kg, read-out: Antitumor Efficacy T/C), the response vs control in vivo at 8 mg/kg came to 245%.
Take `COc1cccc2c1C(=O)c1c(O)c3c(c(O)c1C2=O)C[C@@](O)(C(C)=NNC(=O)CCCCC(=O)NN=C(C)[C@]1(O)Cc2c(O)c4c(c(O)c2[C@@H](O[C@H]2C[C@H](N)[C@H](O)[C@H](C)O2)C1)C(=O)c1c(OC)cccc1C4=O)C[C@@H]3O[C@H]1C[C@H](N)[C@H](O)[C@H](C)O1` [III, Bis(daunomycin) Adipylhydrazone Dihydrochloride]: the IC50 was determined as 3.6 µM in assay [1] (setting [7]) and 8.9 µM in assay [3] (setting [9]). Besides, the response vs control in vivo at 37.5 mg/kg in assay [2] (Mus musculus, P388, ip, ip P388, treated ip, q4d 5,9,13, optimum dose 37.5 mg/kg, read-out: Antitumor Efficacy T/C) was found to be 196%. For the same compound, the response vs control in vivo at 6.25 mg/kg in assay [2] (setting [8]) was 281%.
For `COc1cccc2c1C(=O)c1c(O)c3c(c(O)c1C2=O)C[C@@](O)(C(C)=NNC(=O)CCCCCCCCC(=O)NN=C(C)[C@]1(O)Cc2c(O)c4c(c(O)c2[C@@H](O[C@H]2C[C@H](N)[C@H](O)[C@H](C)O2)C1)C(=O)c1c(OC)cccc1C4=O)C[C@@H]3O[C@H]1C[C@H](N)[C@H](O)[C@H](C)O1` [V, Bis(Daunomycin) Sebacylhydrazone Dihydrochloride], the IC50 in assay [1] (setting [4]) is 1 µM; in assay [3] (setting [6]), 10 µM. Further, the response vs control in vivo at 12.5 mg/kg in assay [2] (setting [10]) turned out to be 221%. Further, the response vs control in vivo at 50 mg/kg in assay [2] (setting [10]) came out at 163%.
Regarding `COc1cccc2c1C(=O)c1c(O)c3c(c(O)c1C2=O)C[C@@](O)(C(C)=NNC(=O)CCC(=O)NN=C(C)[C@]1(O)Cc2c(O)c4c(c(O)c2[C@@H](O[C@H]2C[C@H](N)[C@H](O)[C@H](C)O2)C1)C(=O)c1c(OC)cccc1C4=O)C[C@@H]3O[C@H]1C[C@H](N)[C@H](O)[C@H](C)O1` [I, Bis(daunomycin) Succinylhydrazone Dihydrochloride], in assay [1] (setting [4]), the IC50 was found to be 3.4 µM. Moreover, in assay [2] (setting [10]), the response vs control in vivo at 6.25 mg/kg was found to be 283%, the response vs control in vivo at 12.5 mg/kg worked out at 307% and the response vs control in vivo at 20 mg/kg is 170%. In assay [2] (qd 1-9, 6.25 mg/kg, sacrifice at 30 days), the “treated mice survived until sacrifice at 30 days” value is “Three out of six”. For the same compound, the “treated mice survived until sacrifice at 45 days” value in assay [2] (qd 1-9, 12.5 mg/kg, sacrifice at 45 days) is on record as “Two out of six”. The IC50 in assay [3] (setting [6]) is 13 µM.
In the case of `COc1cccc2c1C(=O)c1c(O)c3c(c(O)c1C2=O)C[C@@](O)(C(=O)CO)C[C@@H]3O[C@H]1C[C@H](N)[C@H](O)[C@H](C)O1` [Adriamycin], the IC50 in assay [1] (setting [4]) amounted to 0.67 µM; in assay [3] (setting [6]) it was 1.5 µM. Moreover, the response vs control in vivo at 8 mg/kg in assay [2] (setting [5]) was 157%. Besides, in assay [2] (Mus musculus, ip P388, treated ip, qd 1-9, optimum dose 1.0 mg/kg, read-out: Antitumor Efficacy T/C), the response vs control in vivo at 1 mg/kg was found to be 195%.
On to `COc1cccc2c1C(=O)c1c(O)c3c(c(O)c1C2=O)C[C@@](O)(C(CO)=NNC(=O)CCC(=O)NN=C(CO)[C@]1(O)Cc2c(O)c4c(c(O)c2[C@@H](O[C@H]2C[C@H](N)[C@H](O)[C@H](C)O2)C1)C(=O)c1c(OC)cccc1C4=O)C[C@@H]3O[C@H]1C[C@H](N)[C@H](O)[C@H](C)O1` [VII, Bis(adriamycin) Succinylhydrazone Dihydrochloride], for which the results for the IC50 in assay [1] (setting [7]) and in assay [3] (setting [9]) were 3.1 µM and 13.3 µM, respectively. Further, in assay [2] (Mus musculus, P388, ip, ip P388, treated ip, q4d 5,9,13, optimum dose 18.8 mg/kg, read-out: Antitumor Efficacy T/C), the response vs control in vivo at 18.8 mg/kg was 160%. Further, the response vs control in vivo at 6.25 mg/kg in assay [2] (setting [8]) worked out at 309%.
Regarding `COc1cccc2c1C(=O)c1c(O)c3c(c(O)c1C2=O)C[C@@](O)(C(C)=NNC(=O)C(=O)NN=C(C)[C@]1(O)Cc2c(O)c4c(c(O)c2[C@@H](O[C@H]2C[C@H](N)[C@H](O)[C@H](C)O2)C1)C(=O)c1c(OC)cccc1C4=O)C[C@@H]3O[C@H]1C[C@H](N)[C@H](O)[C@H](C)O1` [IX, Bis-(Daunomycin) Oxalylhydrazone Dihydrochloride], the values for the IC50 in assay [1] (setting [7]) and in assay [3] (setting [9]) were 2.3 µM and 4.3 µM, respectively. In addition, in assay [2] (setting [11]), the response vs control in vivo at 25 mg/kg came to 160%.
Turning to `COc1cccc2c1C(=O)c1c(O)c3c(c(O)c1C2=O)C[C@@](O)(C(C)=NNC(=O)CCC(=O)NN=C(C)[C@]1(O)Cc2c(O)c4c(c(O)c2[C@@H](O[C@H]2C[C@H](N(C)C)[C@H](O)[C@H](C)O2)C1)C(=O)c1c(OC)cccc1C4=O)C[C@@H]3O[C@H]1C[C@H](N(C)C)[C@H](O)[C@H](C)O1` [VI, Bis(N,N-dimethyldaunomycin) Succinylhydrazone Dihydrochloride], the IC50 was determined as 3 µM in assay [1] (setting [7]) and 19 µM in assay [3] (setting [9]). In assay [2] (setting [11]), the response vs control in vivo at 25 mg/kg was found to be 158%. Also, the response vs control in vivo at 4 mg/kg in assay [2] (Mus musculus, P388, ip, ip P388, treated ip, qd 1-9, optimum dose 4 mg/kg, read-out: Antitumor Efficacy T/C) was 178%.
